Columns and labels:
3T3-L1 adipocytes = assay: Fatty acid oxidation (palmitate-induced O2 consumption, Seahorse XF24) in adipocytes; type: cell-based, mouse; settings: 24-hour Met-Leu treatment
[1] = system: adipocytes (3T3-L1) and myotubes (C2C12); assay: Glucose utilization (extracellular acidification), cell type not stated; type: cell-based, mouse; settings: compound alone
Description: In the absence of a fatty acid source and oxidative metabolism, glycolysis and subsequent lactate production results in extracellular acidification, which was also measured using a Seahorse Bioscience XF24 analyzer. Cells were prepared and equilibrated similar to the methods described above for fatty acid oxidation, with the exclusion of carnitine from the medium. Following instrument equilibration and three baseline measurements, glucose was injected to a final concentration of 10 mM in each well. Measurements were taken as described above utilizing the sensors for extracellular acidification rather than O2 consumption. Insulin (final concentration of 5 nM) was added to some wells as a positive control. Data for each sample were normalized to the pre-glucose injection baseline for that sample and expressed as % change from that baseline. The area under of the curve of extracellular acidification change from baseline for each sample was then calculated and used for subsequent analysis.
In the absence of a fatty acid source and oxidative metabolism, glycolysis and subsequent lactate production results in extracellular acidification, which was also measured using a Seahorse Bioscience XF24 analyzer. […] Data for each sample were normalized to the pre-glucose injection baseline for that sample and expressed as % change from that baseline. […]

C2C12 myotubes [2] = settings: Mooney et al. 2008; cited from earlier work
C2C12 myotubes [3] = assay: Glucose utilization (extracellular acidification response to glucose) in myotubes; type: cell-based, mouse
[4] = system: patients pre-diagnosed with hyperlipidemia; assay: Planned study in hyperlipidemic patients: lipids and cutaneous vasodilation (Example 8); type: in vivo, human; settings: for triglyceride, LDL, cholesterol and HDL levels compared to day 0: oral twice a day, 60 days
Description: Patients that are pre-diagnosed with hyperlipidemia are admitted for the randomized and double blind study. […] The treatments are administered orally twice a day, for 60 days continuously. […] The serum/plasma levels of triglyceride, cholesterol, LDL and HDL are measured. Cutaneous vasodilation is measured by laser-Doppler flowmeter and the discomfort level described by the patients.

[5] = system: LDL receptor knockout (LDLRKO) mice; assay: Planned study in LDL receptor knockout mice with leucine/metformin/nicotinic acid (Example 13); type: in vivo, mouse
AMPK = settings: 3T3-L1 adipocytes
Caenorhabditis elegans = assay: Lifespan of C. elegans (Example 10); type: in vivo; settings: basal conditions; leucine 0.5 mM, nicotinic acid 10 nM
Description: Eggs were hatched on a starved plate overnight. […] All treatments were added with the indicated concentrations to E. coli the agar plates. […] The worms were maintained at 20° C. throughout the duration of the study. Worms were transferred to new plates daily to eliminate progeny. […] The study was continued until the last animal was dead. Data were analyzed via Kaplan-Meier survival curves using Prism 6 (GraphPad Software) and statistical significance was determined by the Log-rank (Mantel-Cox) test.

Sirt1 = settings: C2C12 myotubes
[6] = system: patients pre-diagnosed with hyperlipidemia; assay: Planned study in patients: atherosclerotic plaque size by quantitative coronary angiography (Example 9); type: in vivo, human; settings: oral twice a day, 3 years; nicotinic acid 50 mg, leucine 550 mg, resveratrol 50 mg
Description: Patients that experience acute chest pain and are pre-diagnosed with hyperlipidemia are admitted for the randomized and double blind study. […] The treatments are administered orally twice a day, for 3 years continuously. The size of atherosclerotic plaque is measured at day 0, months 6, 12, 18, 24, 30 and 36 by quantitative coronary angiography.

[7] = system: LDL receptor knockout (Ldlr−/−) mice; assay: Ldlr−/− mice on atherogenic diet with leucine/metformin/nicotinic acid (Example 15); type: in vivo, Mus musculus
[8] = system: LDL receptor knockout mice; assay: LDL receptor knockout mice on western diet: plasma lipids, atherosclerosis, macrophage infiltration (Example 7); type: in vivo, mouse
Description: LDL receptor knockout (LDLRKO) mice were obtained from Jackson Laboratories (Bar Harbor, Me.), and housed in groups under room temperature in a humidity-controlled environment with a regular light and dark cycle. The mice were provided free access to an atherogenic western diet (WD) containing 0.21% cholesterol (by weight) and 40% calories from fat and water for 4 weeks prior to treatment. For treatment, the mice were given (a) the WD diet alone, (b) WD and 24 g of leucine/kg diet, (c) WD and 24 g of leucine/kg diet and 50 mg nicotinic acid/kg diet, (d) WD and 24 g of leucine/kg diet and 250 mg nicotinic acid/kg diet, or (e) WD and 1000 mg nicotinic acid/kg diet; this is approximately equivalent to a low therapeutic dose of nicotinic acid in hypercholesterolemic humans (˜1,500 mg/day). The treatments were administered for eight weeks continuously.
Blood samples of the mice in all groups were obtained from tails of the mice at following four and eight weeks of administration. The serum/plasma levels of triglyceride, total cholesterol and cholesterol esters were measured. Following treatment, food was removed for four hours and the animals were euthanized.
Blood was collected into EDTA-coated tubes to analyze plasma lipid and cholesterol profiles. Plasma total cholesterol (TC, Pointe Scientific, Canton, Mich.), free cholesterol (FC, Wako, Richmond, Va.) and triglyceride (TG, Wako, Richmond, Va.) concentrations were measured using enzymatic assays according to manufacturer's instructions. Cholesterol ester (CE) was calculated as the difference between TC and FC.
To assess atherosclerosis, the circulatory system was perfused following euthanasia with phosphate-buffered saline (PBS) before removing the heart and aorta. The upper one-third of the heart was dissected and embedded in Optimal Cutting Temperature Compound (Sakura Tissue-Tek, Torrance, Calif.), frozen, and stored at −80° C. Blocks were serially cut at 8 μm intervals and stained with hematoxylin and 0.5% Oil Red O (Sigma-Aldrich) to evaluate aortic sinus atherosclerotic intimal area. Atherosclerotic lesion area and Oil Red O positive area were quantified using Image-Pro Plus software (Media Cybernetics, Bethesda, Md.). Whole aorta (from sinotubular junction to iliac bifurcate) was dissected and fixed in 10% formalin, and the adventitia was cleaned. Aortas were opened along the longitudinal axis and pinned onto black silicon elastomer (Rubber-Cal, Santa Ana, Calif.) for the quantification of atherosclerotic lesion area. The percentage of total aortic surface covered with atherosclerotic lesions was quantified by Image-Pro Plus software (Media Cybernetics, Bethesda, Md.) and used to determine the total lesion area.
To assess macrophage infiltration, Sections of aortic sinus were immuno-stained with rat monoclonal antibody against macrophage-specific CD68 (Clone FA11, 1:75, AbD Serotec, Raleigh, N.C.) followed by staining with alkaline phosphatase-conjugated mouse anti-rat (for CD68, 1:50) secondary antibodies (Jackson ImmunoResearch laboratories, West Grove, Pa.). Control slides contain no primary antibody. The CD68-positive areas were analyzed using Image-Pro Plus software (Media Cybernetics, Bethesda, Md.).

[9] = nicotinic acid 50 mg, leucine 550 mg, resveratrol 50 mg
[10] = 24 hours, nicotinic acid 10 nM, leucine 0.5 mM, resveratrol 200 nM

Compound: c1cc(-c2cnn3cc(-c4ccc(OCCN5CCCCC5)cc4)cnc23)ccn1 [Compound C]
- effect of the AMPK inhibitor on the Met-Leu increase in palmitate-induced fatty acid oxidation (3T3-L1 adipocytes): completely blocked this increase

Compound: N=C(N)N [Guanidine]
- no-effect threshold for stimulation of glucose utilization [1]: 0.1 to 1 µM

Compound: CC(C)=CCN=C(N)N [galegine]
- concentration below which published literature shows no effect (C2C12 myotubes [2]): < 100 µM
- increase in insulin-stimulated glucose utilization (C2C12 myotubes [3]; C2C12 myotubes, 5 nM insulin, galegine 5 μM, leucine 0.5 mM): no effect
- concentrations with no independent effect on basal or insulin-stimulated glucose utilization (dose response curves) (C2C12 myotubes [3]; galegine alone): up to 500 μM

Compound: O=C(O)c1cccnc1 [nicotinic acid]
- cutaneous vasodilation compared to 1500 mg nicotinic acid [4, 9]: lower
- cutaneous vasodilation compared to all other groups ([4]; nicotinic acid 1500 mg alone): significant higher cutaneous vasodilation
- triglyceride, LDL, cholesterol and HDL levels compared to day 0 [4, 9]: similar, without statistically significant difference
- triglyceride, LDL, cholesterol and HDL levels compared to day 0 ([4]; nicotinic acid 1500 mg alone): significantly lower triglyceride, LDL and cholesterol levels, and significantly higher HDL level
- plasma insulin and HOMAIR index ([5]; diet doses: metformin 1.5 g/kg alone or 0.25 g/kg in combinations, nicotinic acid 1000 mg/kg alone or 50 mg/kg in combinations, leucine 24 g/kg): high plasma insulin and HOMAIR index
- atherosclerotic lesion size and aortic macrophage infiltration relative to western diet alone ([5]; doses as E112): decrease atherosclerotic lesion size and decrease in aortic macrophage infiltration
- concentrations that alone exert no effect (dose-response study) (AMPK): < 100 nM
- AMPK activation (P-AMPK/AMPK) (AMPK; [10]): no significant effect
- effect on lifespan (Caenorhabditis elegans): no independent effect
- concentrations that alone exert no effect (dose-response study) (Sirt1): < 100 nM
- increase in Sirt1 levels (Sirt1; [10]): did not have a significant effect
- size of atherosclerotic plaque compared to day 0 [6]: similar, without statistically significant difference
- fasting blood glucose ([7]; 8 weeks, nicotinic acid 1000 mg/kg diet, or leucine 24 g/kg + metformin 0.5 g/kg + nicotinic acid 50 mg/kg diet, vs atherogenic diet): no change
- plasma LDL cholesterol ([7]; Day 56, doses as E126): significantly lower
- plasma cholesterol ([7]; Day 56, doses as E126): significantly lower
- plasma triglycerides ([7]; Day 56, doses as E126): significantly lower
- Oil Red O staining area in the heart and aorta ([7]; doses as E126): significantly less Oil Red O staining area
- atherosclerosis (histological images of heart) ([7]; doses as E126): reduced
- fasting plasma insulin ([7]; doses as E126): no change
- decrease in aortic macrophage infiltration (CD68 positive area) ([8]; eight weeks, doses as E77): ~50%
- decrease in atherosclerotic lesion size (lesion and lipid area) ([8]; eight weeks, nicotinic acid 1,000 mg/kg diet, leucine 24 g/kg diet, or leucine + nicotinic acid 50 mg/kg diet, vs western diet alone): ~50%
- decrease in plasma cholesterol esters ([8]; four weeks, doses as E73): 28%
- decrease in plasma triglycerides ([8]; four weeks, doses as E73): 32%
- decrease in plasma total cholesterol ([8]; four weeks, western diet + nicotinic acid 1,000 mg/kg diet, leucine 24 g/kg diet, or leucine + nicotinic acid 50 or 250 mg/kg diet): 20%

— patent publication US20180235917A1, “COMPOSITIONS, METHODS AND KITS FOR TREATMENT OF DIABETES AND/OR […]” (NuSirt Sciences, Inc., priority 2014, published 2018)
